{"source": "patent US5885968A", "about": "“Triantennary cluster glycosides, their preparation and use” (Rijksuniversiteit te Leiden, priority 1992, dated 1999)", "key": {"[1]": {"system": "rats", "assay": "Serum cholesterol lowering after intravenous injection in rats", "type": "in vivo, rat", "description": "This was verified as follows. Male rats (250-300 g) were anesthetized by means of ether, whereafter 500 gl PBS, having dissolved therein 0.56 mg, 0.18 mg, 0.056 mg or 0 mg TG(20 Å)-chol (formula 20) or 0.56 mg tris-glu-chol (formula 21): [drawing 19] was injected into the vena penis. At the times indicated in FIG. 3, blood samples of 300 μl were taken by means of orbital puncture. The blood samples were centrifuged (5 min; 1500 g) and the serum was used for a cholesterol assay by means of the CHOD-PAP kit of Boehringer Mannheim. 24 Hours after injection the rat was bled. The blood was centrifuged whereafter the serum was pipeted. Then the serum was subjected to gradient density ultracentrifugation and the various lipoprotein fractions were isolated: HDL (1.21<d<1.05), LDL (1.050<d<1.019), IDL (1.019<d<1.006) and VLDL (d<1.006). Finally, the total cholesterol concentrations of these lipoprotein fractions were assayed by means of the CHOD-PAP kit."}, "[2]": {"system": "rats", "assay": "Biliary secretion in catheterized rats after intravenous injection", "type": "in vivo, rat", "conditions": "0.56 mg i.v., FIG. 5", "description": "Intravenous injection of TG(20 Å)C (0.56 mg, dissolved in phosphate buffered saline) in rats, provided with catheters in duodenum, bile-duct and heart vene, also enhances the biliary secretion of bile acids from the liver leaving the biliary flow and the biliary secretion of cholesterol unaltered. Apparently, the TG(20 Å)C-induced increase in the uptake of lipoprotein-derived cholesterol is efficiently coupled to bile-acid secretion in rats. This might have important implications for potential application of TG(20 Å)C as a hypocholesterolemic therapeutic. (See FIG. 5.)"}, "[3]": {"system": "rats", "assay": "In vivo behaviour of LDL charged with glycolipid after intravenous injection into rats", "parameters": "species or system rat", "source_text": "The so prepared compound TG(20 Å)-chol (formula 20): [drawing 22] can also be used to direct LDL to the hepatic parenchymal cell. To investigate this, isolated low-density lipoprotein was charged with TG(20 Å)-chol according to a procedure that is known per se and the in vivo behaviour of the particle was studied. […] This then leads to a stabilization of the LDL level in the bloodstream after a few minutes. Accumulation of TG(20 Å)-chol in LDL, then, changes the physiological rate of LDL. The complex is taken up by the liver via a galactose-specific route. […] Now it can be verified whether the complex is taken up by the parenchymal or by the Kupffer cell on the liver. […] This is an indication that charging with this compound leads to liver uptake via the asialoglycoprotein receptor in the parenchymal cell."}, "[4]": {"system": "rats", "assay": "In vivo fate of lipoprotein (a) charged with glycolipid in rats", "parameters": "species or system rat", "source_text": "The so prepared TG(20 Å)-chol (formula 20): [drawing 24] can also be used to direct apo(a) to the hepatic parenchymal cell. High levels of lp(a) are correlated with the occurence of coronary and vascular diseases. To date, an adequate clinical therapy to alleviate the pathogenesis is not available. To investigate whether TG(20 Å)C can be used to stimulate the hepatic uptake and processing of lp(a) this, isolated lp(a) was charged with TG(20 Å)-chol according to a procedure that is known per se and the in vivo behaviour of the particle was studied. Lp(a) (50 μg) in PBS was incubated at 20° C. for 30 min with 0, 5, 15 and 50 μg TG(20 Å) (-chol). This charge led to a changed behaviour of the apo(a) after intravenous injection into rats. This is illustrated in FIG. 8. […] On account of the high […] of TG(20 Å)-chol, very rapidly an exchange of this compound occurs between lp(a) and other lipoproteins and lipid compartments. This then leads to a stabilization of the lp(a) level in the bloodstream after a few minutes.\n^125 I-Lp(a) (50 μg) was mixed with 50 μg of TG(20 Å)C or TG(4 Å)C in 500 μl PBS. After 30 min at room temperature, the mixtures were injected into rats at a dose of 50 μg of apolipoprotein/kg body weight. Ten minutes after injection, parenchymal, endothelial and Kupffer cells were isolated from the liver and counted for radioactivity. Values are expressed as 10-3.% of the injected dose per mg of cellular protein and are means of 3 experiments ± s.e.m."}, "[5]": {"conditions": "125I-Lp(a) 50 μg + 50 μg glycolipid, rats, 10 min after injection, mean ± s.e.m., 3 experiments"}}, "data": [{"smiles": "CC(C)CCC[C@@H](C)[C@H]1CC[C@H]2[C@@H]3CC=C4C[C@@H](OC(=O)CNC(=O)CCCCC(=O)NCC(=O)NC(COCOCCOCCOCCOCCO[C@@H]5O[C@H](CO)[C@H](O)[C@H](O)[C@H]5O)(COCOCCOCCOCCOCCO[C@@H]5O[C@H](CO)[C@H](O)[C@H](O)[C@H]5O)COCOCCOCCOCCOCCO[C@@H]5O[C@H](CO)[C@H](O)[C@H](O)[C@H]5O)CC[C@]4(C)[C@H]3CC[C@]12C", "note": "[TG(20 Å)-chol, N,N-[tris-O-(3,6,9-trioxaundecanyl-β-D-galactopyranosyl)methoxymethyl]methyl-N^α -(1-(6-(5-cholesten-3β-yloxy)glycyl)adipyl)glycinamide]", "values": [{"measurement": "Cholesterol level 24 hours after single administration", "setting": "[1]; 0.56 mg, 24 hours", "value": "has not returned to the control value"}, {"measurement": "LDL level", "setting": "[1]; 24 h after injection", "value": "likewise lowered"}, {"measurement": "Concentrations of the other lipoproteins", "setting": "[1]; 24 h after injection (IDL, VLDL)", "value": "not significantly affected"}, {"measurement": "Serum HDL level", "setting": "[1]; 24 h after injection, FIG. 4", "value": "decreases dose-dependently and significantly"}, {"measurement": "Total serum cholesterol level", "setting": "[1]; injection into vena penis, 0.056-0.56 mg, FIG. 3", "value": "decreases"}, {"measurement": "Increase in potency compared with tris-gal-chol", "setting": "[1]; serum cholesterol lowering, comparison with ref 15", "value": "≥ 25", "unit": "factor"}, {"measurement": "Biliary flow", "setting": "[2]", "value": "unaltered"}, {"measurement": "Biliary secretion of bile acids", "setting": "[2]", "value": "enhances"}, {"measurement": "Biliary secretion of cholesterol", "setting": "[2]", "value": "unaltered"}, {"measurement": "Effect of asialofetuin preinjection on uptake of charged LDL", "setting": "[3]; 50 mg/kg asialofetuin 1 min before injection", "value": "significant inhibition of the uptake by the liver parenchymal cell"}, {"measurement": "Clearance from bloodstream and liver uptake of charged 125I-LDL", "setting": "[3]; LDL 50 μg charged with 5, 15, 50 μg, i.v. rats, FIG. 6", "value": "cleared and incorporated into the liver much faster"}, {"measurement": "Liver cell type location of charged LDL taken up", "setting": "[3]; rats, FIG. 7", "value": "largely located in the parenchymal cell"}, {"measurement": "Effect of N-acetyl-galactosamine preinjection on induced hepatic uptake of 125I-lp(a)", "setting": "[4]; 150 mg N-acetyl-galactosamine, rat, data not shown", "value": "can be inhibited"}, {"measurement": "Contribution to hepatic uptake of Lp(a), EC (endothelial cells)", "setting": "[4]; [5]", "value": "8.3 ± 2", "unit": "%"}, {"measurement": "Contribution to hepatic uptake of Lp(a), KC (Kupffer cells)", "setting": "[4]; [5]", "value": "37.3 ± 9", "unit": "%"}, {"measurement": "Clearance from bloodstream and liver uptake of charged apo(a)/lp(a) particles", "setting": "[4]; Lp(a) 50 μg charged with 5, 15, 50 μg, i.v. rats, FIG. 8", "value": "cleared and incorporated into the liver much faster"}]}]}
